Laboratory results from patent US11518981B2, “Methods of enhancing engraftment activity of hematopoietic stem cells” (CHILDREN'S HOSPITAL MEDICAL CENTER, priority 2017, dated 2022).

Columns and labels:
[1] = tested on: CD34^+38^−90^+ HSCs; experiment: ROS measurement (MITOSOX / CM-H2DCFDA) in HSCs; type: cell-based, human; settings: MITOSOX in CD34^+38^−90^+ cells
Protocol: Freshly isolated CD34^+ cells were used, wherever possible, and especially for 0 h controls. In some experiments cryopreserved CD34^+ cells were thawed for 4 hrs in IMDM containing cytokines, then washed and used for experiments. CD34^+ cells were transduced in X-VIVO 10™ (Lonza) medium supplemented with 2% human serum albumin (Baxter), recombinant human Flt-3 ligand (Flt3-L; 200 ng/mL), stem cell factor (SCF; 300 ng/mL), thrombopoietin (TPO; 100 ng/mL) (all cytokines obtained from PeproTech), and penicillin-streptomycin (ThermoFisher Scientific) on non-tissue culture treated plates coated with retronectin (4 μg/cm2, CH-296, Takara Bio Inc.). […]
PE-Cyanine 7 or APC-EFLUOR® 780, APC- or PE-conjugated antibodies directed to human CD34 (BD Biosciences 560710 or 555824), CD38 (eBiosciences, San Diego, Calif. 47-0389-42), CD90 (BioLegend 328120), CD45RA (eBiosciences 17-0458-42), CD49f (BD Biosciences 555736), CD45 (BD 55485 or Biolegend 304026), CD33 (eBiosciences 25-0338-42), CD19 (BD Biosciences 557791), or CD3 (BD Biosciences 555340). […] Total ROS and mitochondrial specific ROS were detected using 10 μM CM-H2DCFDA (ThermoFisher Scientific C6827) and 5 μM MITOSOX™ Red (Red Mitochondrial Superoxide Indicator) (ThermoFisher Scientific M36008) respectively, following manufacturer's instructions.

[2] = tested on: human CD34^+ cells; experiment: GFP marking in human grafts of NSG mice; type: in vivo; settings: limiting dilution transplant; also long-termed secondary human grafts
Source text: NOD.Cg-Prkdcscid Il2rgtm1Wjl/SzJ (NSG) mice were purchased from The Jackson Laboratory (Bar Harbor, Me.). All animals were bred and maintained in a specific pathogen-free environment and all experiments were approved by the Institutional Animal Care and Use (IACUC) Committee. Male and female NSG mice aged 8 to 14 weeks old were fed doxycycline chow (TestDiet; Modified Prolab RMH-1500 with 0.0625% doxycycline) a week prior to, during and for 2 weeks post irradiation. Human engraftment was analyzed in bone marrow (BM), via BM aspirates performed at 6 and 12 weeks from left and right femurs. After sacrifice at 24 weeks, marrow from all of the primary mice (1 T) was harvested. Peripheral blood analysis was also performed in some experiments. Secondary transplants (2 T) were performed after mouse CD45^+ cells were depleted from BM harvested from each 1 T mouse separately, using Biotin Rat Anti-Mouse CD45 (BD Biosciences 553078) and Streptavidin Particles Plus-DM (BD Biosciences 557812) and injected into one irradiated (280 cGy) secondary NSG mouse. […] Total ROS and mitochondrial specific ROS were detected using 10 μM CM-H2DCFDA (ThermoFisher Scientific C6827) and 5 μM MITOSOXTM Red (Red Mitochondrial Superoxide Indicator) (ThermoFisher Scientific M36008) respectively, following manufacturer's instructions.

[3] = tested on: CD34^+38^−90^+45RA^−49f^+ HSCs; experiment: phenotypic HSC population by flow cytometry; type: cell-based, human
Source text: PE-Cyanine 7 or APC-EFLUOR® 780, APC- or PE-conjugated antibodies directed to human CD34 (BD Biosciences 560710 or 555824), CD38 (eBiosciences, San Diego, Calif. 47-0389-42), CD90 (BioLegend 328120), CD45RA (eBiosciences 17-0458-42), CD49f (BD Biosciences 555736), CD45 (BD 55485 or Biolegend 304026), CD33 (eBiosciences 25-0338-42), CD19 (BD Biosciences 557791), or CD3 (BD Biosciences 555340). Cells (˜5×10^5−1×10^6) were used to label with antibodies as per manufacturer instructions with the appropriate isotype controls. For phospho-flow, primary antibodies phospho-p38 (Thr180/Tyr182; 4092S), phospho-p44/42 MAPK (ERK ½) (Thr202/Tyr204; 4094S), and phospho-JNK (Thr183-Tyr185 PE conjugate; 5755S) (all from Cell Signaling) were used for staining overnight followed by wash and secondary antibody stain including Goat anti-Rabbit IgG (H+L) or Goat anti-Rabbit IgG (H+L) or Pacific Blue (P-10994) antibody. Apoptosis assay was performed using PE Annexin V Apoptosis Detection Kit (BD Biosciences 559763) according to the manufacturer's instructions. Total ROS and mitochondrial specific ROS were detected using 10 μM CM-H2DCFDA (ThermoFisher Scientific C6827) and 5 μM MITOSOX™ Red (Red Mitochondrial Superoxide Indicator) (ThermoFisher Scientific M36008) respectively, following manufacturer's instructions.

Cc1ccc(-n2nc(C(C)(C)C)cc2NC(=O)Nc2ccc(OCCN3CCOCC3)c3ccccc23)cc1 [p38i, 1-[5-tert-butyl-2-(4-methylphenyl)pyrazol-3-yl]-3-[4-(2-morpholin-4-ylethoxy)naphthalen-1-yl]urea]
ROS levels in the HSC compartment [1]: no difference
GFP marking [2]: did not have any effect
increased phenotypic HSC population ([3]; other than prolonged cultures): similar
phenotypic HSCs ([3]; prolonged cultures): higher
